From patent US10375960B2, “Resin composition including insecticidal component” ([…] Control Consortium, priority 2015, dated 2019)

What was measured:
[1] = system: Anopheles gambiae VK7-strain; experiment: Basic insecticidal activity, topical application method, pyrethroid-resistive strain (Test Example 4); assay type: in vivo; conditions: for 50% Lethal Dose (LD50): pyrethroid-resistive female adults, topical application, mortality after 24 hours; for Relative Efficacy: relative to deltamethrin (=1), from LD50 values
Experimental: (§1) The basic insecticidal activity of the present compound was examined using a topical application method. Various concentrations of acetone solutions of the present compound were previously prepared. […] After the treatment, the female adult of Cancer Vieja Madara mosquito was moved into a plastic cup (having a diameter of 9 cm and a height of about 4.5 cm), and was fed with 5% sugar water. The mortality after 24 hours was examined. The number of the tested female adults of Cancer Vieja Madara mosquito was 10 heads per each one concentration in four replicate experiments. The 50% lethal dose (the LD50 value) of the present compound was calculated from the test result using probit method. The same experiment was conducted using ethofenprox as a control. The lower 50% lethal dose of a compound means the higher basic insecticidal activity of the compound. The ratio of the LD50 value of the present compound relative to the LD50 value of ethofenprox was calculated to acquire the relative efficacy of the present compound to ethofenprox.
The basic insecticidal activity of each of the present compound and deltamethrin was examined using the same method as that used in Test Example 1. Here the tested female adults of Cancer Vieja Madara mosquito were pyrethroid-resistive female adults of Cancer Vieja Madara mosquito (Anopheles gambiae VK7-strain), and the number of the tested insects was 10 heads per each one concentration in two replicate experiments. The ratio of the LD50 value of the present compound relative to the LD50 value of deltamethrin was calculated to acquire the relative efficacy of the present compound to deltamethrin.

[2] = system: Anopheles gambiae Kisumu-strain; experiment: Basic insecticidal activity, topical application method (Test Example 1); assay type: in vivo; conditions: for 50% Lethal Dose (LD50): female adults, 0.3 μL acetone solution on thoracodorsal region, mortality after 24 hours, probit method; for Relative Efficacy: relative to ethofenprox (=1), from LD50 values
Experimental: as §1

Row | Structure (SMILES) | 50% Lethal Dose (LD50) [1] | Relative Efficacy [1] | 50% Lethal Dose (LD50) [2] | Relative Efficacy [2]
1 | CC1(C)[C@H](C(=O)O[C@H](C#N)c2cccc(Oc3ccccc3)c2)[C@@H]1C=C(Br)Br [Deltamethrin, deltamethrin] | 0.00104 μg/female | 1 |  | 
2 | CCOc1ccc(C(C)(C)COCc2cccc(Oc3ccccc3)c2)cc1 [Ethofenprox, ethofenprox] |  |  | 0.0021 μg/female | 1
3 | CCc1ncnc(NCCc2ccc(C(F)(F)F)cc2)c1Cl [The present compound, 5-chloro-4-ethyl-6-[2-(4-trifluoromethylphenyl)ethylamino]pyrimidine] | 0.01833 μg/female | 0.05674 | 0.0094 μg/female | 0.22
